Literature values as cited in US10166194B2, “Hydrocortisone controlled release formulation” (Diurnal Limited, priority 2012, dated 2019).

half-life: ca. 3 hours
SMILES: C[C@]12CCC(=O)C=C1CC[C@@H]1[C@@H]2[C@@H](O)C[C@@]2(C)[C@H]1CC[C@]2(O)C(=O)CO [Hydrocortisone]
